In this assay the target is T1, BRM (Homo sapiens, UniProt P51531).
T1 construct: Western Blot Screen of BRM Degradation in SW1573 Cells; endogenous in cells; host or cells: SW1573 cells
Briefly: BRM degradation (Dmax and DC50) in SW1573 cells, Western blot screen / In-Cell Western screen. The settings on record: overnight (18-20 hours) treatment; for Dmax: read-out: Dmax (%)** (% degraded). In kind it is cell-based. How it is done: To assess BRM degradation (Dmax and DC50) cells were seeded at 8000/well in 96-well black/clear-bottom plates in 180 μL DMEM growth media (containing 1% pen-strep, 1% HEPES and 10% FBS) per well. Plates were incubated overnight to allow adhesion. The next morning cells were treated by adding 20 μL of 10× target compound concentration (1% DMSO) to appropriate wells and returned to incubator for overnight (18-20 hours). The final DMSO concentration was 0.1%.
For lysing, adherent cells were washed once with 100 μL of DPBS. Cells were lysed in 40 μL of 1×RIPA+HALT protease inhibitor on ice for 10 minutes and frozen until use at −80° C. Thawed lysates were cleaned by filtration in 1.2 µm filter plates, or alternatively, were spun clean at 2300 g at 4° C. for 30 minutes.
For blotting, for each Western sample 30 μL of lysate was added to 10 μL of 4× LDS sample buffer, then denatured at 95° C. for 5 minutes in the thermal cycler and placed on ice. Samples were loaded on 4-15% Tris/Glycine gels and run for 25 minutes at 250 constant volts in 1× Tris/Glycine buffer with 4 μL of ladder and 12 μL of each sample loaded for each blot. Protein was transferred from gels to NC with BioRad Turbo dry-transfer unit with the Turbo/midi default program. All blots were rinsed with ddH2O and blocked for 1 hour at room temperature in 5% BSA in TBST (0.1%) on rocker. Blots were exposed to primary antibody in 5% BSA in TBST (0.1%) overnight at 4° C. on rocker (1:1000 for BRM (Cell Signaling Tech. cat #11966) and 1:2000 for alpha-tubulin (Cell Signaling Tech. cat #3873), a control protein. Blot was washed with TBST (0.1%) three times for 5 minutes on rocker at room temperature. Secondary antibody was added, and blots were incubated on a room temperature rocker for 1 hour with 1:18,000 anti-rabbit-HRP and/or anti-mouse-HRP in 5% BSA in TBST (0.1%). Blots were washed three times in TBST (0.1%) for 5 minutes at room temperature on the rocker. Signal was developed with Femto Maximum Sensitivity substrate for 4 minutes and blots read on ChemiDoc™.
To assess BRM degradation (Dmax and DC50), cells were seeded at 8000/well in 96-well black/clear-bottom plates in 180 μL DMEM growth media (containing 1% pen-strep, 1% HEPES and 10% FBS) per well. Plates were incubated overnight to allow adhesion. The next morning cells were treated by adding 20 μL of 10× compound (1% DMSO) to appropriate wells and returned to incubator for overnight (18-20 hours). The final DMSO concentration was 0.1%.
For processing, the plates were removed from incubator, the media was removed, and immediately 200 μL of cold (4° C.) DPBS was added to all wells. DPBS was then removed, and 50 μL of 4% paraformaldehyde (PFA) in DPBS (4° C.) was added to all wells, and the plates were incubated at room temperature for 20 minutes. PFA was then removed, and 200 μL of TBS-T containing 0.5% Triton X-100 was added to all wells, and the plates were incubated at room temperature for 30 minutes. TBS-T containing 0.5% Triton X-100 was then removed, and 50 μL of Li-Cor blocking solution was added, and the plates were incubated at room temperature for a minimum of one hour. The blocking solution was removed, and 50 μL of Li-Cor blocking solution containing primary antibody cocktail was added (1:1000 for BRM (Cell Signaling Tech. cat #11966) and 1:2000 for alpha-tubulin (Sigma cat #T6074), a control protein. Plates were then placed in cold room until the next day.
The next day plates were washed three times with TBS-T, 200 μL per well. Fifty […] of secondary antibody cocktail in LI-COR blocking solution (anti-rabbit_800 nm and anti-mouse_680 nm) was added to all wells (diluted 1:5000). The plates were incubated at room temperature for at least one hour while protected from light. The plates were washed twice with TBS-T, 200 μL per well.
To read each plate TBS-T was removed, and each plate was inverted tapped on a paper towel. […]

The record followed here is US20250059198A1, “BRM DEGRADING COMPOUNDS AND ASSOCIATED METHODS OF USE” (Arvinas Operations, Inc., priority 2021, published 2025).

T1 sequence (P51531 whole entry): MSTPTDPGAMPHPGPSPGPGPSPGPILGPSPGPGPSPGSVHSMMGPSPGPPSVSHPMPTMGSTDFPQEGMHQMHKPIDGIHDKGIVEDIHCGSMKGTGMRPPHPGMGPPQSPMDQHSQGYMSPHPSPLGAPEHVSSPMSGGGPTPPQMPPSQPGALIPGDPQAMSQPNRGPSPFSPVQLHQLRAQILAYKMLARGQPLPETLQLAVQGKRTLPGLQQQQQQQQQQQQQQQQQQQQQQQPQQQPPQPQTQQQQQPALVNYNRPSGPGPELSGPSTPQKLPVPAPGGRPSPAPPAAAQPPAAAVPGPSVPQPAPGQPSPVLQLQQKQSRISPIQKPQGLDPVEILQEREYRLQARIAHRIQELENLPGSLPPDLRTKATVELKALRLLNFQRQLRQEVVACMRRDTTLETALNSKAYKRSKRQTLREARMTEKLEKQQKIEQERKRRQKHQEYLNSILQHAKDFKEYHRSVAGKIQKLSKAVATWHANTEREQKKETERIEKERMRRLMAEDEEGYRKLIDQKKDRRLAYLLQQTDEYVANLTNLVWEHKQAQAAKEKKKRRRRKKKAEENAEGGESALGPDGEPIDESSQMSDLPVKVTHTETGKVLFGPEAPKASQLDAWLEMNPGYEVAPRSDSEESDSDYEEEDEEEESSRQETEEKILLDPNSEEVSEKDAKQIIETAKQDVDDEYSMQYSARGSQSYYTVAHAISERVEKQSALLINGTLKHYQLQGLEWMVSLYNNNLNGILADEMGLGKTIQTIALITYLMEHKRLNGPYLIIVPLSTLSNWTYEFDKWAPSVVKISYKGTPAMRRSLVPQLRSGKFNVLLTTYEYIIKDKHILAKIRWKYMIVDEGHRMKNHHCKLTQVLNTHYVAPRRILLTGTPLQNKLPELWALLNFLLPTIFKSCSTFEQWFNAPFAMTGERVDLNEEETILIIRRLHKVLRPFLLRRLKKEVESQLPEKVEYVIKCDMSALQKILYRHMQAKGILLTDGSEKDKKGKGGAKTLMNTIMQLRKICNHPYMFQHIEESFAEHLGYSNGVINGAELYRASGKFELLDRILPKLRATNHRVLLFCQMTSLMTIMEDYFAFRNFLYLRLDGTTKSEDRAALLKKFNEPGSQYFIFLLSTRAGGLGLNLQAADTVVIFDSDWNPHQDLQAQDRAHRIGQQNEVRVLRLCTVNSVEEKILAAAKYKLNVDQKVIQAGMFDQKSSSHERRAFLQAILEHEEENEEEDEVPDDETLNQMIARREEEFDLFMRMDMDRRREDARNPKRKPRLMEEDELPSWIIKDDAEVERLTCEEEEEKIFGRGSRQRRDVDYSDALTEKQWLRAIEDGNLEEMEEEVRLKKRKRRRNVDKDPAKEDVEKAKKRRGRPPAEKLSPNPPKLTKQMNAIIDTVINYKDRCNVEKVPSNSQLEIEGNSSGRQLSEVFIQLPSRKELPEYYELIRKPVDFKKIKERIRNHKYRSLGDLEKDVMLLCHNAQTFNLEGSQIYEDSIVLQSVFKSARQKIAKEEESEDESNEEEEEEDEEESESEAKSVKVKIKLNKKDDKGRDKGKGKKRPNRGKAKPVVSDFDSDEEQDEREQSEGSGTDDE

As to `CC(NC(=O)[C@@H]1C[C@@H](O)CN1C(=O)[C@@H](c1cc(N2CCC(CN3CCC(O[C@H]4C[C@H](Oc5cc(N6C7CCC6CN(c6cc(-c8ccccc8O)nnc6N)C7)ccn5)C4)CC3)CC2)no1)C(C)C)c1ccc(C#N)c(F)c1` (stereo partly drawn) [Compound 4, (2S,4R)-N-[1-(4-cyano-3-fluorophenyl)ethyl]-4-hydroxy-1-[(2R)-3-methyl-2-{3-[4-({4-[(1r,3r)-3-[(4-{3-[3-amino-6-(2-hydroxyphenyl)pyridazin-4-yl]-3,8-diazabicyclo[3.2.1]octan-8-yl}pyridin-2-yl)oxy]cyclobutoxy]piperidin-1-yl}methyl)piperidin-1-yl]-1,2-oxazol-5-yl}butanoyl]pyrrolidine-2-carboxamide], the 50% degradation concentration (DC50) is under 2.5 nM and the Dmax is over 75%.

`Cc1ncsc1-c1ccc([C@H](C)NC(=O)[C@@H]2C[C@@H](O)CN2C(=O)[C@H](c2cc(N3CCC(CN4CCC(O[C@H]5C[C@H](Oc6cc(N7C8CCC7CN(c7cc(-c9ccccc9O)nnc7N)C8)ccn6)C5)CC4)CC3)no2)C(C)C)c(N)c1` [Compound 5, (2S,4R)-N-[(1S)-1-[2-amino-4-(4-methyl-1,3-thiazol-5-yl)phenyl]ethyl]-4-hydroxy-1-[(2S)-3-methyl-2-{3-[4-({4-[(1r,3r)-3-[(4-{3-[3-amino-6-(2-hydroxyphenyl)pyridazin-4-yl]-3,8-diazabicyclo[3.2.1]octan-8-yl}pyridin-2-yl)oxy]cyclobutoxy]piperidin-1-yl}methyl)piperidin-1-yl]-1,2-oxazol-5-yl}butanoyl]pyrrolidine-2-carboxamide] registered a DC50 of at least 30 nM.

For the compound `Cc1ncsc1-c1ccc([C@H](C)NC(=O)[C@@H]2C[C@@H](O)CN2C(=O)[C@@H](c2cc(N3CCC(CN4CCC(O[C@H]5C[C@@H](N6CCC([C@H](C)n7cc(-c8cc(-c9ccccc9O)nnc8N)cn7)CC6)C5)CC4)CC3)no2)C(C)C)cc1` [Compound 8, (2S,4R)-4-hydroxy-N-[(1S)-1-[4-(4-methyl-1,3-thiazol-5-yl)phenyl]ethyl]-1-[(2R)-3-methyl-2-{3-[4-({4-[(1s,3s)-3-{4-[(1S)-1-{4-[3-amino-6-(2-hydroxyphenyl)pyridazin-4-yl]-1H-pyrazol-1-yl}ethyl]piperidin-1-yl}cyclobutoxy]piperidin-1-yl}methyl)piperidin-1-yl]-1,2-oxazol-5-yl}butanoyl]pyrrolidine-2-carboxamide], the half-maximal degradation concentration (DC50) was under 2.5 nM and the Dmax is over 75%.

`Cc1ncsc1-c1ccc([C@H](C)NC(=O)[C@@H]2C[C@@H](O)CN2C(=O)[C@@H](c2cc(N3CCC(CN4CCC(O[C@H]5C[C@H](N6CCC([C@H](C)n7cc(-c8cc(-c9ccccc9O)nnc8N)cn7)CC6)C5)CC4)CC3)no2)C(C)C)cc1` [Compound 9, (2S,4R)-4-hydroxy-N-[(1S)-1-[4-(4-methyl-1,3-thiazol-5-yl)phenyl]ethyl]-1-[(2R)-3-methyl-2-{3-[4-({4-[(1r,3r)-3-{4-[(1S)-1-{4-[3-amino-6-(2-hydroxyphenyl)pyridazin-4-yl]-1H-pyrazol-1-yl}ethyl]piperidin-1-yl}cyclobutoxy]piperidin-1-yl}methyl)piperidin-1-yl]-,2-oxazol-5-yl}butanoyl]pyrrolidine-2-carboxamide]: the DC50 was under 2.5 nM and the Dmax was over 75%.

Take `Cc1ncsc1-c1ccc([C@H](C)NC(=O)[C@@H]2C[C@@H](O)CN2C(=O)[C@@H](c2cc(N3CCC(CN4CCC(N[C@H]5C[C@H](Oc6cc(N7C8CCC7CN(c7cc(-c9ccccc9O)nnc7N)C8)ccn6)C5)CC4)CC3)no2)C(C)C)cc1` [Compound 10, (2S,4R)-4-hydroxy-N-[(1S)-1-[4-(4-methyl-1,3-thiazol-5-yl)phenyl]ethyl]-1-[(2R)-3-methyl-2-(3-{4-[(4-{[(1rs,3rs)-3-[(4-{3-[3-amino-6-(2-hydroxyphenyl)pyridazin-4-yl]-3,8-diazabicyclo[3.2.1]octan-8-yl}pyridin-2-yl)oxy]cyclobutyl]amino}piperidin-1-yl)methyl]piperidin-1-yl}-1,2-oxazol-5-yl)butanoyl]pyrrolidine-2-carboxamide]: the DC50 was under 2.5 nM and the greatest degradation seen (Dmax) was over 75%.

`Cc1ncsc1-c1ccc([C@H](C)NC(=O)[C@@H]2C[C@@H](O)CN2C(=O)[C@@H](c2cc(N3CCC(CN4CCC(O[C@H]5C[C@H](N6CCC(O)(CN7C8CCC7CN(c7cc(-c9ccccc9O)nnc7N)C8)CC6)C5)CC4)CC3)no2)C(C)C)cc1` [Compound 11, (2S,4R)-4-hydroxy-N-[(1S)-1-[4-(4-methyl-1,3-thiazol-5-yl)phenyl]ethyl]-1-[(2R)-3-methyl-2-{3-[4-({4-[(1r,3r)-3-[4-({3-[3-amino-6-(2-hydroxyphenyl)pyridazin-4-yl]-3,8-diazabicyclo[3.2.1]octan-8-yl}methyl)-4-hydroxypiperidin-1-yl]cyclobutoxy]piperidin-1-yl}methyl)piperidin-1-yl]-1,2-oxazol-5-yl}butanoyl]pyrrolidine-2-carboxamide]: the DC50 is under 2.5 nM and the Dmax is over 75%.

The compound `Cc1ncsc1-c1ccc([C@H](C)NC(=O)[C@@H]2C[C@@H](O)CN2C(=O)[C@H](c2cc(N3CCC(n4cnc(CN5CCC(O[C@H]6C[C@H](Oc7cc(N8C9CCC8CN(c8cc(-c%10ccccc%10O)nnc8N)C9)ccn7)C6)CC5)c4)CC3)no2)C(C)C)cc1` [Compound 12, (2S,4R)-4-hydroxy-N-[(1S)-1-[4-(4-methyl-1,3-thiazol-5-yl)phenyl]ethyl]-1-[(2S)-3-methyl-2-(3-{4-[4-({4-[(1r,3r)-3-[(4-{3-[3-amino-6-(2-hydroxyphenyl)pyridazin-4-yl]-3,8-diazabicyclo[3.2.1]octan-8-yl}pyridin-2-yl)oxy]cyclobutoxy]piperidin-1-yl}methyl)-1H-imidazol-1-yl]piperidin-1-yl}-1,2-oxazol-5-yl)butanoyl]pyrrolidine-2-carboxamide] gave a DC50 of at least 30 nM.

Compound `Cc1ncsc1-c1ccc([C@H](C)NC(=O)[C@@H]2C[C@@H](O)CN2C(=O)[C@H](c2cc(N3CCC(C4(N5CCC(O[C@H]6C[C@H](Oc7cc(N8C9CCC8CN(c8cc(-c%10ccccc%10O)nnc8N)C9)ccn7)C6)CC5)CC4)CC3)no2)C(C)C)cc1` [Compound 13, (2S,4R)-4-hydroxy-N-[(3S)-3-[4-(4-methyl-3,3-thiazol-5-yl)phenyl]ethyl]-3-[(2S)-3-methyl-2-{3-[4-(3-{4-[(1r,3r)-3-[(4-{3-[3-amino-6-(2-hydroxyphenyl)pyridazin-4-yl]-3,8-diazabicyclo[3.2.3]octan-8-yl}pyridin-2-yl)oxy]cyclobutoxy]piperidin-1-yl}cyclopropyl)piperidin-1-yl]-1,2-oxazol-5-yl}butanoyl]pyrrolidine-2-carboxamide] displayed a DC50 of at least 30 nM.

Consider `CC(C)[C@@H](C(=O)N1C[C@H](O)C[C@H]1C(=O)N[C@@H](C)c1ccc(C#N)cc1)c1cc(N2CCC(CN3CCC(O[C@H]4C[C@H](Oc5cc(N6C7CCC6CN(c6cc(-c8ccccc8O)nnc6N)CC7)ccn5)C4)CC3)CC2)no1` (stereo partly drawn) [Compound 14, (2S,4R)-N-[(1S)-1-(4-cyanophenyl)ethyl]-4-hydroxy-1-[(2R)-3-methyl-2-{3-[4-({4-[(1r,3r)-3-[(4-{3-[3-amino-6-(2-hydroxyphenyl)pyridazin-4-yl]-3,9-diazabicyclo[4.2.1]nonan-9-yl}pyridin-2-yl)oxy]cyclobutoxy]piperidin-1-yl}methyl)piperidin-1-yl]-1,2-oxazol-5-yl}butanoyl]pyrrolidine-2-carboxamide], for which the DC50 is under 2.5 nM and the Dmax was over 75%.

The term DC50 denotes the midpoint of the concentration-degradation curve. A lower DC50 goes with degradation at low concentration. The term Dmax denotes the greatest extent of degradation seen.
